The values below come from patent US20200129472A1, “COMPOSITIONS AND METHODS FOR THE TREATMENT OF PERIPHERAL ARTERY DISEASE” (BOARD OF REGENTS OF THE UNIVERSITY OF NEBRASKA, priority 2017, published 2020).

Entries after “also recorded” stand apart in the source; their conditions may differ.

The subject of the assay is rat model of peripheral arterial disease (PAD rats, femoral artery occlusion). Kind of assay: Exercise intolerance test (motorized treadmill) in PAD rat model after epidural delivery of RTX. It counts as in vivo. An excerpt:
Catheter-based femoral artery occlusion was created by placing a modified PE50 catheter (its cavity filled with solid agarose) between common iliac artery and left femoral artery to interrupt hindlimb blood supply. The whole procedure is similar to the telemetry implant surgery. Generally, rats were anesthetized using a 2%-3% isoflurane:oxygen mixture. A warm water blanket was used to provide intra-operative heat support to prevent hypothermia. Rats were placed in the prone position and the surgical site (i.e., the femoral area) was cleared of hair, prepared with iodine or chlorhexidine, and the femoral artery was exposed. After a small incision was made, a modified PE50 catheter was placed into the femoral artery and advanced about 3.5 cm to the iliac artery at the aortic bifurcation. The distal end of the femoral artery was ligated with 4-0 Dexon suture. The skin was closed with external interrupted 4-0 or 3-0 prolene suture, which were removed in 10-14 days after the surgery.
Exercise testing for determination of intolerance time was performed in a motorized treadmill equipped with an electrical grid at the end of the lane. The animals were initially acclimated to the treadmill environment at a low speed (13 m/min, 0% grade) for 6 minutes. Then, data was recorded of the exercise duration and distance at the speed of the treadmill of 13 m/minute (0% grade) and increased of 3 m/minute each 2 minutes until exhaustion. Exhaustion was defined operationally as the time at which the rat was unable, or refused, to maintain its running speed for more than 15 seconds despite encouragement by mild electrical stimulation. The maximal speed and running distance were recorded when exhaustion occurred. Two methods were used to measure the exercise intolerance time in sham, PAD and PAD+RTX rats. With the first method, individual rats were run with 90%, 75%, 50% and 25% of its own maximal speed. The exercise intolerance time corresponding to individual running intensity was recorded and compared among groups. With the second method, a fixed running speed (37 m/minute) was used to run all rats among groups to get their exercise intolerance time.
To deplete skeletal muscle afferent neuron soma (L4-L5 DRGs), rats were anesthetized using 2%-3% isoflurane:oxygen mixture. Rats were placed in the prone position and the surgical site was cleared of hair, prepared with iodine or chlorhexidine. A small midline incision was made in the region of the T13-L1 thoracic vertebrae. Following dissection of the superficial muscles, a small hole (approximately 3 mm*3 mm) was made in the left side of T13 vertebral (ipsilateral). A polyethylene catheter (PE-10) was inserted into the subarachnoid space via left hole and gently advanced about 4.0 cm to the left L5 level in which the first injection (6 μg/ml, 10 μl) was made at a very slow speed to minimize the diffusion of RTX. Then the catheter was pulled back to left L4 to perform another injection (10 μl/each). Then the catheter was held for 15 minutes and then withdrawn. After that, silicon gels were used to seal the hole in the T13 vertebral. The skin overlying the muscle was closured by 3-0 polypropylene suture. Simple interrupted sutures were used to close the skin. Skin suture were removed 10-14 days after surgery. Betadine was applied to the wound and the rats were allowed to recover from the anesthesia.
The therapeutic efficacy of resiniferatoxin was tested in a in a rat model of peripheral arterial disease. As explained above, resiniferatoxin was administered to PAD rats by lumbar epidural administration at the time of femoral arterial occlusion. The resiniferatoxin (6 μg/ml, 10 μl/per ganglia) was injected between the ipsilateral L4 and L5 vertebrae into the epidural space at a concentration of 10 μl per ganglion. Healthy rats with sham treatment were also used as a positive control.

In the case of `C=C(C)[C@]12C[C@@H](C)[C@@]34O[C@@](Cc5ccccc5)(OC1C3C=C(COC(=O)Cc1ccc(O)c(OC)c1)C[C@]1(O)C(=O)C(C)=CC41)O2` (stereo partly drawn) [resiniferatoxin, [(1R,6R,13R,15R,17R)-13-benzyl-6-hydroxy-4,17-dimethyl-5-oxo-15-(prop-1-en-2-yl)-12,14,18-trioxapentacyclo[11.4.1.0^1,10.0^2,6.0^11,15]octadeca-3,8-dien-8-yl]methyl 2-(4-hydroxy-3-methoxyphenyl)acetate], the “ability to run for longer distances at a higher rate (time running at percent maximum intensity)” value (RTX 6 μg/ml, 10 μl per ganglion, lumbar epidural L4/L5, at the time of femoral arterial occlusion, FIG. 1D) is reported as “increased ability to run for longer distances at a higher rate”. Also, where the note is “RTX 6 μg/ml, 10 μl per ganglion, lumbar epidural L4/L5, at the time of femoral arterial occlusion, fixed speed 37 m/minute, FIG. 1C”, the “ability to run at 37 m/minute (time run at 37 m/min)” value is recorded as “increased ability to run at 37 m/minute”. Besides, the running distance result (RTX 6 μg/ml, 10 μl per ganglion, lumbar epidural L4/L5, at the time of femoral arterial occlusion, vs PAD+control, FIG. 1A) was “increased running distances”. For the same compound, where the note is “RTX 6 μg/ml, 10 μl per ganglion, lumbar epidural L4/L5, at the time of femoral arterial occlusion, vs PAD+control, FIG. 1B”, the maximal running speed entry is listed as “increased maximal running speed”. Further, the “exercise limitations associated with PAD” value is, setting by setting: (RTX administered 4 weeks after femoral arterial occlusion (after onset of PAD), before vs after treatment, FIG. 2) “reduces exercise limitations; also recorded: reduced the exercise limitations”; (RTX given at the time of femoral arterial occlusion, FIG. 1) “reduces the exercise limitations”. Further, where the note is “RTX given at the time of femoral arterial occlusion, time after PAD surgery”, the “duration of the statistically significant improvements in exercise performance” value was “lasted for months”.
